Read-outs that look alike come from different tables or passages of the source.
How the values were obtained:
rat = details: cited from earlier work
[1] = vapour pressure measurement (Clausius-Clapeyron diagram); format: physicochemical
Experimental: The curve plotted in FIG. 2B represents the Clausius-Clapeyron diagram of the 1,3,5-trimethylborazine molecule, namely its vapour pressure measurement. 1,3,5-trimethylborazine has a vapour pressure of 40 Torr at 50° C. and greater than 200 Torr at 100° C., indicating a good volatility.

[2] = thermogravimetric analysis; format: physicochemical; details: ramp 20 to 400° C., 10° C./min, 30 mL/min helium
Experimental: A thermogravimetric analysis of 1,3,5-trimethylborazine was carried out over a temperature ramp of 20 to 400° C., with a rise of 10° C./min under 30 mL/min of helium.
Curve 2 from FIG. 2A plotted as a lighter line represents the loss in mass of the sample as a function of the temperature. The final value of the residue level of 3.2% indicates a high purity and good thermal stability of 1,3,5-trimethylborazine. This residue level is reached at 165° C.
Thermogravimetric analysis of tri-butylborane was carried out over a temperature ramp of 20 to 400° C., with a rise of 10° C./min under 30 mL/min of helium.
Curve 2 from FIG. 4 plotted as a lighter line represents the loss in mass of the sample as a function of the temperature.

SMILES	toxicity qualification with reference to LD50 oral, rat (rat; oral)	vapour pressure ([1]; at 50° C.)	vapour pressure ([1]; at 100° C.)	toxicity qualification with reference to LD50 oral, rat (rat; in vivo, po)	final value of the residue level (thermal stability) [2]
B.B [diborane]	lethal				
CN1BN(C)BN(C)B1 [1,3,5-trimethylborazine]		40 Torr	greater than 200 Torr	slightly toxic to almost non-toxic	3.2%
CB(C)C [trimethylborane]	very toxic				
CCCCB(CCCC)CCCC [tri-n-butylborane]					0.6%
